In assay [1] the test system is A549. Description: Induction of apoptosis in human A549 cells assessed as increase in cleaved caspase-3 level at 20 uM measured after 24 hrs by Western blot analysis. Format: functional, cell-based. A general note: In western blotting, separated proteins are transferred to a membrane and probed.
Another assay has as its system NCI-H1650. Description: Cytotoxicity against human NCI-H1650 cells measured after 72 hrs by MTT assay. It counts as functional, cell-based. The following applies: NCI-H1650, 72 h. In general terms: Tetrazolium assays rely on reduction of a dye to a coloured formazan, in cell work by metabolically active cells.
For assay [2], the target named is T1, c-Jun N-terminal kinase, JNK (Homo sapiens) (UniProt P45983+P53779+P45984). The experiment in a line: Induction of ROS-induced JNK phosphorylation in human A549 cells at 10 uM in presence of ROS inhibitor NAC measured after 24 hrs Western blot analysis. Format: cell-based.
Assay [3] deals with A549. The experiment in a line: Induction of apoptosis in human A549 cells assessed as reduction in Bcl-2 expression at 10 uM in presence of ROS inhibitor NAC measured after 24 hrs Western blot analysis. It counts as functional, cell-based.
In assay [4] the test system is A549. The experiment in a line: Induction of apoptosis in human A549 cells assessed as ROS production at 10 uM in presence of ROS inhibitor NAC measured after 12 hrs by DCFH-DA staining based flow cytometry (reference value: 7.19 %). It counts as functional. For orientation: A flow cytometer gives signals particle by particle.
For assay [5], the system named is A549. The experiment in a line: Anti-migratory activity against human A549 cells assessed as reduction in cell migration at 20 uM measured after 24 to 72 hrs by wound healing assay relative to control. Format: functional. Details: scale not given: the % may be the effect or the level left.
In assay [6] the test system is A549. The experiment in a line: Induction of apoptosis in human A549 cells at 20 uM measured after 48 hrs by Annexin-V-FITC/propidium iodide staining based flow cytometry (reference value: 5.91 %). It counts as functional.
Assay [7] deals with A549. The experiment in a line: Antiproliferative activity against human A549 cells assessed as reduction in colony formation measured after 7 days by crystal violet staining based assay. Format: functional, cell-based.
Assay [8] concerns A549. Description: Anti-migratory activity against human A549 cells assessed as reduction in cell migration measured after 24 to 72 hrs by wound healing assay. Format: functional, cell-based.
For assay [9], the system named is A549. Description: Anti-migratory activity against human A549 cells assessed as reduction in cell migration at 10 uM measured after 24 to 72 hrs by wound healing assay relative to control. It counts as functional. Details: scale not given: the % may be the effect or the level left.
Assay [10] has as its target T1, c-Jun N-terminal kinase, JNK (Homo sapiens). Description: Induction of ROS-induced JNK phosphorylation in human A549 cells at 10 uM measured after 24 hrs by Western blot analysis. It counts as cell-based.
Assay [11] concerns A549. The experiment in a line: Induction of apoptosis in human A549 cells assessed as increase in Bax expression at 10 uM measured after 24 hrs Western blot analysis. It counts as functional, cell-based.
Assay [12] deals with A549. The experiment in a line: Induction of apoptosis in human A549 cells assessed as reduction in Bcl-2 expression measured after 24 hrs by Western blot analysis. Format: functional, cell-based.
For assay [13], the target named is Transcription factor p65 (Homo sapiens) (UniProt Q04206). The experiment in a line: Inhibition of TNF-alpha stimulated P65 nuclear translocation in human A549 cells at 10 uM pretreated for 2 hrs followed by TNF-alpha induction measured after 20 mins DAPI-staining based assay. It counts as cell-based.
Assay [14] deals with A549. Description: Anti-migratory activity against human A549 cells assessed as reduction in cell migration at 5 uM measured after 24 to 72 hrs by wound healing assay relative to control. Format: functional. Details: scale not given: the % may be the effect or the level left.
Assay [15] concerns A549. The experiment in a line: Induction of apoptosis in human A549 cells assessed as increase in Bax expression measured after 24 hrs by Western blot analysis. It counts as functional, cell-based.
Assay [16] has as its system A549. Description: Induction of apoptosis in human A549 cells assessed as chromatin condensation measured after 72 hrs by Hoechst 33258 staining based fluorescent microscopic analysis. Format: functional, cell-based.
For assay [17], the system named is A549. The experiment in a line: Cytotoxicity against human A549 cells measured after 72 hrs by MTT assay. Format: functional, cell-based. The following applies: for IC50: A549, 72 h.
Assay [18] relates to A549. Description: Induction of apoptosis in human A549 cells assessed as increase in ROS production at 10 uM by DCFH-DA staining based flow cytometry. It counts as functional, cell-based. The following applies: TDE = time-dependent effect.
Assay [19] concerns A549. Description: Induction of apoptosis in human A549 cells assessed as reduction in Bcl-2 expression at 10 uM measured after 24 hrs Western blot analysis. It counts as functional, cell-based.
Assay [20] has as its target T2, NF-kappa-B inhibitor alpha (Homo sapiens) (UniProt P25963).
T2 sequence (whole entry): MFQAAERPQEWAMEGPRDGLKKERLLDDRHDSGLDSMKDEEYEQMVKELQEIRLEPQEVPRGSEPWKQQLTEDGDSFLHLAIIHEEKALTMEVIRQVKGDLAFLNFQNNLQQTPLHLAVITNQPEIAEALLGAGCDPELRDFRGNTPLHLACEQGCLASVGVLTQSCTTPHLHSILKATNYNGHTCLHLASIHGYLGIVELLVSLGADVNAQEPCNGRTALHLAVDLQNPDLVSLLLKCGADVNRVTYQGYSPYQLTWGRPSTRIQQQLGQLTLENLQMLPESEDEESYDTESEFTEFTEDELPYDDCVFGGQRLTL
The experiment in a line: Inhibition of TNF-alpha induced IkappaBalpha degradation in human A549 cells measured after 24 hrs by Western blot analysis. Format: cell-based.

Assay [21] concerns A549. The experiment in a line: Induction of apoptosis in human A549 cells at 10 uM measured after 48 hrs by Annexin-V-FITC/propidium iodide staining based flow cytometry (reference value: 5.91 %). Format: functional.
Assay [22] concerns A549. Description: Induction of apoptosis in human A549 cells at 5 uM measured after 48 hrs by Annexin-V-FITC/propidium iodide staining based flow cytometry (reference value: 5.91 %). Format: functional.
The subject of assay [23] is A549. Description: Induction of apoptosis in human A549 cells assessed as increase in Bax expression at 10 uM in presence of ROS inhibitor NAC measured after 24 hrs Western blot analysis. Format: functional, cell-based.
Assay [24] has as its system A549. Description: Induction of apoptosis in human A549 cells assessed as cell shrinkage measured after 72 hrs by Hoechst 33258 staining based fluorescent microscopic analysis. Format: functional.
The test system of assay [25] is A549. Description: Induction of apoptosis in human A549 cells assessed as formation of apoptotic bodies measured after 72 hrs by Hoechst 33258 staining based fluorescent microscopic analysis. Format: functional, cell-based.
The subject of assay [26] is A549. Description: Induction of apoptosis in human A549 cells assessed as ROS production at 10 uM measured after 12 hrs by DCFH-DA staining based flow cytometry (reference value: 7.19 %). It counts as functional.
Assay [27] relates to A549. Description: Induction of apoptosis in human A549 cells measured after 48 hrs by Annexin-V-FITC/propidium iodide staining based flow cytometry. It counts as functional, cell-based.
The test system of assay [28] is Lewis lung carcinoma cell line. The experiment in a line: Cytotoxicity against mouse LLC cells measured after 72 hrs by MTT assay. It counts as functional, cell-based.

Results on 13 compounds are retold here after ChEMBL document CHEMBL4041523, “Design, synthesis, and evaluation of asymmetric EF24 analogues as potential anti-cancer agents for lung cancer” (Eur J Med Chem, 2017).

Active and inactive are the calls of the source. No cut-off for these calls is given here.

Sequence of Transcription factor p65 (Homo sapiens) (Q04206 whole entry): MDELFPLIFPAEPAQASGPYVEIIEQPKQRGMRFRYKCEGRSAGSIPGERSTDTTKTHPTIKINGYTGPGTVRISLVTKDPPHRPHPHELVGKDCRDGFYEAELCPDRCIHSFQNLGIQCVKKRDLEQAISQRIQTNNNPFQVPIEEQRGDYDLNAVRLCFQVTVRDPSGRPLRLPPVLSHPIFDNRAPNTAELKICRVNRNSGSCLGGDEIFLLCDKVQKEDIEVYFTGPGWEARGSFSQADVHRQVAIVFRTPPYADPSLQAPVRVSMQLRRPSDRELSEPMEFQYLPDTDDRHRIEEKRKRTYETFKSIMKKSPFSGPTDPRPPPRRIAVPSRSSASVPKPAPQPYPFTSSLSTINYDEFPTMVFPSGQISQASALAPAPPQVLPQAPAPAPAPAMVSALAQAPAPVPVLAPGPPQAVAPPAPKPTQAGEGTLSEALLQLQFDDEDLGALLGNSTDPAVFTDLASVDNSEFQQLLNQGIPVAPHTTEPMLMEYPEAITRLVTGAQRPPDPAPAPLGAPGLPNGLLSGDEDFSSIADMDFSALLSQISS

By IC50 is commonly meant the concentration needed to halve the response being measured. As to `COc1cc(/C=C2\COC/C(=C\c3ccccc3F)C2=O)cc(OC)c1OC`, the result (in the assay on A549 [1]; in assay [10]; in the assay on A549 [11]; with A549 [19]) was Active. The figures for the IC50 (with NCI-H1650; in the assay with A549 [17]; in [28]) were 6.8 µM, 6.3 µM and 6.1 µM, respectively. The result (in assay [2]; in the assay on A549 [3]; in the assay with A549 [23]) was inactive. The Activity with A549 [4] is 5.19%; in the assay with A549 [5], 37.9%; in the assay on A549 [6], 20.4%; with A549 [7], “Dose-dependent effect”; in the assay on A549 [8] it was “Dose-dependent effect”; in the assay with A549 [9], 68.7%. Further, the Activity result in the assay on A549 [12] was “Dose-dependent effect”; in the assay with A549 [14], 82.2%; with A549 [15] it was “Dose-dependent effect”; with A549 [16], “Dose-dependent effect”; with A549 [17] it was “Dose-dependent effect”; in the assay on A549 [18], “Tde”. For the same compound, the Activity with A549 [21] was 9.26%; with A549 [22], 6.55%; in the assay on A549 [24] it was “Dose-dependent effect”; in the assay on A549 [25], “Dose-dependent effect”; in the assay with A549 [26] it was 9.81%; in the assay with A549 [27], “Dose-dependent effect”. The inhibition result in [13] was “Active”. Besides, the inhibition result in assay [20] is “Dose-dependent effect”.

As to `Cc1ccc2nc(NCCN)c3ncc(C)n3c2c1` [BMS-345541], the IC50 in the assay with NCI-H1650 came out at 19.9 µM; in the assay on A549 [17], 5.6 µM; in [28] it was 4.8 µM. For the same compound, in the assay with A549 [6], the Activity was determined as 16.57%.

Regarding `COc1ccc(OC)c(/C=C2\COC/C(=C\c3ccccc3F)C2=O)c1`, the figures for the IC50 (in the assay with NCI-H1650; in the assay on A549 [17]; in assay [28]) were 6.8 µM, 8.7 µM and 15.1 µM, respectively.

As for `O=C1/C(=C/c2ccccc2F)COC/C1=C\c1ccccc1C(=O)O`, the IC50 in the assay with NCI-H1650 came out at 15.2 µM; in the assay with A549 [17], 27.9 µM; in assay [28] it was 17.2 µM.

For the compound `COc1ccc(/C=C2\COC/C(=C\c3ccccc3F)C2=O)cc1O`, the half-maximal inhibitory concentration (IC50) in the assay with NCI-H1650 was found to be 7.5 µM; with A549 [17] it was 13.8 µM; in assay [28] it was 9.6 µM.

Take `O=C1/C(=C/c2ccccc2F)CNC/C1=C\c1ccccc1F`: the IC50 with NCI-H1650 came to 14.6 µM; with A549 [17], 7.1 µM; in assay [28], 8.4 µM.

As to `O=C1/C(=C/c2ccccc2F)COC/C1=C\c1ccccc1Br`, the half-inhibitory concentration (IC50) in the assay with NCI-H1650 is 6.5 µM; with A549 [17], 6.5 µM; in assay [28] it was 13.3 µM.

For the compound `O=C1/C(=C/c2ccccc2F)COC/C1=C\c1ccc(Cl)cc1Cl`, the IC50 was found to be 8.6 µM in the assay with NCI-H1650, 7.9 µM in the assay with A549 [17] and 29.4 µM in assay [28].

As for `O=C1/C(=C/c2ccccc2)COC/C1=C\c1ccccc1F`, the results for the IC50 (in the assay with NCI-H1650; in the assay on A549 [17]; in assay [28]) were 9.6 µM, 17.6 µM and 16 µM, respectively.

For the compound `COc1cc(/C=C/C(=O)CC(=O)/C=C/c2ccc(O)c(OC)c2)ccc1O` [CURCUMIN], the IC50 in the assay with NCI-H1650 turned out to be 20.7 µM; in the assay on A549 [17], 27.8 µM; in [28] it was 24.7 µM.

Turning to `COc1cc(/C=C2\COC/C(=C\c3ccccc3F)C2=O)ccc1O`, the IC50 in the assay with NCI-H1650 came out at 18.5 µM; in the assay on A549 [17] it was 21.4 µM; in assay [28] it was 13.1 µM.

With `O=C1/C(=C/c2cccc(O)c2)COC/C1=C\c1ccccc1F`, the figures for the IC50 (with NCI-H1650; in the assay on A549 [17]; in assay [28]) were 5.7 µM, 7.4 µM and 13.8 µM, respectively.

As to `COc1ccccc1/C=C1\COC/C(=C\c2ccccc2F)C1=O`, the IC50 lay in the range of 6.5 to 17.6 µM in the assay on NCI-H1650, 5.9 to 11.7 µM with A549 [17] and 15.4 to 17.7 µM in assay [28].
